Data as given in patent publication US8906888B2, “Low-calcemic 16,23-diene 25-oxime analogs of 1α,25-dihydroxy vitamin D3” (Cytochroma Inc., priority 2005, dated 2014).

Key:
CYP24 = molecular target: T1, CYP24 (Homo sapiens, UniProt Q07973); test: CYP24 enzyme assay (V79-CYP24 cells, 3H-1α,25(OH)2D3 substrate); assay type: cell-based; conditions: substrate 20 nM, 2 hours, read-out: IC50 in the inhibition of CYP24
T1 construct: expressed in transfected cells; host or cells: V79-CYP24 cells (V79 = Chinese hamster lung fibroblasts, own knowledge; kept under hygromycin selection)
T1 sequence (Q07973 36-514): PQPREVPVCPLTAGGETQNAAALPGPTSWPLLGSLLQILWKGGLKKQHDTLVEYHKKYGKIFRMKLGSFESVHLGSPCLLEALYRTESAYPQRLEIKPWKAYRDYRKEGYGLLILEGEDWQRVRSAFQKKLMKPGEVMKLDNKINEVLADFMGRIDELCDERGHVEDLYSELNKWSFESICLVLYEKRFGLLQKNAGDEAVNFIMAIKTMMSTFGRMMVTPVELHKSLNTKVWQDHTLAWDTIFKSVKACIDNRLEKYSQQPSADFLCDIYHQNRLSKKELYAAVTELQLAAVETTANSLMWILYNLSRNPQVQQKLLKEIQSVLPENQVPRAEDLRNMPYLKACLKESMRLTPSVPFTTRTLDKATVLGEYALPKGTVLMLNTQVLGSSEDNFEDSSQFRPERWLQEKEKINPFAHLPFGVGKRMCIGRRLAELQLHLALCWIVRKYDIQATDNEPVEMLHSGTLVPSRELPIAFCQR
Procedure: (i) Material and Reagents:
Substrates (1 mM) reconstituted in isopropanol
1. Preparation of Cell Suspension • On the day of the assay, washed the monolayer of V79-CYP24 cells once with 1×PBS buffer and then trypsinized for 5 min at room temperature (approx. 22° C.). Added 1×PBS. Collected cells into tube, centrifuged cells (500×g, 5 min) and resuspended in DMEM+1% BSA media. Counted cells and adjusted density to 2 million/1 mL.
2. Cell Plating • Added 80 μl of cell suspension to appropriately labeled wells of a 96-well plate. Incubated plate for 45 minutes at 37° C. in a humidified atmosphere containing 5% CO2.
3. Compound Addition • Added 10 μl of inhibitor (10^−6 to 10^−10 M) and then after 35-40 min added 10 μl of substrate [^3H-1β]-1α,25(OH)2D3 (20 nM) for 2 hours at 37° C. in a humidified atmosphere containing 5% CO2. Both inhibitor and substrate were prepared in DMEM with 1% BSA media.
4. Lipid Extraction and Counting • Added 250 μl of methanol to stop the reaction and mixed. Added […] of dichloromethane, covered block and vortexed. Added […] of dichloromethane again, added […] of saturated KCl and vortexed. Centrifuged at 3000 rpm for 30 min. Triplicate 100 μl aliquots of aqueous fraction were mixed with 200 μl of scintillation fluid and the radioactivity was measured using a scintillation counter. All values were normalized for background. (iii) Results: • 1. […] (iv) Reference: 1. PCT Patent Application Serial No. PCT/CA03/00620

OVCAR-3 cells = test: [3H]-Thymidine proliferation assay with OVCAR-3 cells; assay type: cell-based; conditions: ovarian cancer cells, 6 days, 3H-thymidine incorporation
Procedure: 1. Preparation of Suspension • When OVCAR-3 cells were ˜50% confluent, aspirated media. Washed cells with 1×PBS. Trypsinized with trypsin-EDTA, collected cells from the tissue culture flask, centrifuged (200×g, 5 min) and resuspended in media.
2. Cell Plating. • Counted the cells and adjusted the cell density to 11.4×10^3 to provide 2000 cells in 175 μl (for 1 well). Distributed cell suspension into a 96 well plates at 175 μl (2000 cells) per well. Incubated plate for 24 h at 37° C. in a humidified atmosphere plus 5% CO2. • Substrate addition. • Added 25 μl of compound (final concentration 10^−7 M, 5×10^−8 M 10^−8 M, 5×10^−9 M, 10^−9 M, 10^−10M or 0 M) into each designated well. Incubated plates for 6 days without changing media and drugs at 37° C. in a humidified atmosphere plus 5% CO2.
3. [^3H]-Thymidine incorporation • Added ^3H-thymidine at 0.02 μCi per well and incubated at 37° C. in a humidified atmosphere plus 5% CO2 for 6 h.
4. Plate Harvesting. • Aspirated all media and washed cells with 1×PBS. Trypsinized cells for 30 min at 37° C. in a humidified atmosphere plus 5% CO2. Harvested cells onto a 96 well filter plate (Millipore) using a Tomtec Cell Harvestor, according to manufacturers instructions.
5. Scintillation Counting. • Added 25 μl of scintillation fluid per well. Counted the plate using a scintillation counter. Results: Compounds (20R)-I(a), (20R)-I(c) and (20R)-I(e) all inhibited the proliferation of OVCAR-3 cells.

CYP24 mRNA = test: CYP24 transcriptional activation assay in U-937 cells (real time PCR); assay type: cell-based, human; conditions: six hours, normalized to GAPDH, 100 nM calcitriol set to 100%
Procedure: 1α,25(OH)2D3 1 mM reconstituted in isopropanol
• Sodium pyruvate • Non-essential amino acids • HEPES • 10% fetal bovine serum Phorbol 12-myristate 13-acetate (PMA) 24-well plate Isopropanol TRIzol® reagent (Invitrogen) Chloroform Ethanol Diethylpyrocarbonate treated dH2O Thermoscript™ RT-PCR System kit (Invitrogen) Human CYP24 TaqMan® Probe (Applied Biosystems Inc) Human GAPDH TaqMan® Probe (Applied Biosystems Inc) TaqMan® Universal Master Mix Probe (Applied Biosystems Inc) (ii) Procedure:
1. Cell Culture, Stimulation and Plating • Cultured U-937 cells in 4+RPMI media to a level of ≈80% confluence. Pelleted cells by centrifugation and resuspended to a concentration of 5×10^5 cells per 1 ml media. Treated U-937 cells with a final concentration of PMA of 20 ng/ml. To each well, of a 24-well plate, added 1 ml of cell suspension and incubated overnight at 37° C., in a humidified atmosphere containing 5% CO2, for adherence of cells to the wells.
2. Cell Treatment and TRIzol® Addition • Changed the media with 1 ml of fresh 4+RPMI media. Added 1 μl of the working solutions of 1, 10, and 100 μM of the compound being tested, in triplicate. Added 1 μl of isopropanol as a control, in triplicate. Incubated the cells for six hours at 37° C., in a humidified atmosphere containing 5% CO2, aspirated off the media and then added 1 ml of TRIzol® reagent. Transferred TRIzol® with cell lysate to a 1.7 ml microcentrifuge tube and stored at −80° C.
3. […] Determined the concentration of RNA using a spectrophotometer to measure the optical density of each sample, at a wavelength of 260 nm. […]
4. CYP24/GAPDH Real Time PCR • Determined the amount of CYP24 and GAPDH mRNA present in each sample using commercial TaqMan® probes, from Applied Biosystems Inc. (Foster City, Calif.). Detected both genes in the same 20 μl reaction, using an ABI PRISM 96-well optical reaction plate and cycle 50 times using an ABI Prism 7000 Sequence Detection System® (ABI). […]

[1] = Standard hypercalcemia assay (urine calcium, oral daily dosing for one week); assay type: in vivo; conditions: rat

Row | IC50 (CYP24) | Levels of calcium in the urine [1] | SMILES | Inhibition of OVCAR-3 cell proliferation (OVCAR-3 cells) | CYP24 mRNA induction, activity as % of that for calcitriol at 100 nM (CYP24 mRNA)
1 | 488 nM | – | C=C1/C(=C\C=C2/CCC[C@]3(C)C([C@H](C)C/C=C/C(=N\OC)C(F)(F)F)=CC[C@@H]23)C[C@@H](O)C[C@@H]1O [(20R)-I(a)] | inhibited | 54%
2 | – | significant increase | C=C1/C(=C\C=C2/CCC[C@]3(C)[C@@H]([C@H](C)CCCC(C)(C)O)CC[C@@H]23)C[C@@H](O)C[C@@H]1O [calcitriol, 1α,25-Dihydroxy vitamin D3] | – | –
3 | 85.9 nM | – | C=C1/C(=C\C=C2/CCC[C@]3(C)C([C@H](C)C/C=C/C(=N\OC)C4CC4)=CC[C@@H]23)C[C@@H](O)C[C@@H]1O [(20R)-I(c)] | inhibited | 30%
